Experimental data reported in patent publication US20110293746A1, “Modulation of Gsk-3Beta and Method of Treating Proliferative Disorders” (Agency For Science, Technology and Research, priority 2004, published 2011).
“Also recorded” adds a separate entry of the source.

Columns and labels:
Format in all cases: cell-based, Human
p53 in HCT116 cells = assay: p53 accumulation in cytosol and mitochondria (subcellular fractionation, Western blot); details: in the presence of LY2119301, etoposide 24 h
Protocol: (§1) Western blotting, immunoprecipitation and microarray analysis: Cells were scraped, collected and lysed as described previously (Yu, Q., et al. Cancer Res, 62: 5743-5748, 2002). Briefly, cells were lysed with cell lysis buffer (0.3% NP40, 1 mM EDTA, 50 mM Tris-HCl (pH 7.4), 2 mM EGTA, 1% Triton X-100, […], 25 mM NaF, 1 mM Na3VO4, 2 mM AEBSF, 5 μg/ml aprotinin, 1 μg/ml leupeptin) for 30 minutes on ice, and the lysates were clarified by centrifugation at 12,000×g for 15 minutes at 4° C. Protein concentration was quantified (Bio-Rad, Hercules, Calif.) and protein samples (50 μg) were separated by SDS/PAGE and transferred onto Immobilon™ membranes (Millipore, Bedford, Mass.). Antibodies against the following proteins were used: p53 (DO-1), p21, PARP, GSK-α/β, α-Tubulin, and β-actin (Santa Cruz Biotechnology), Puma (Ab-1, Oncogene), Bax (Sigma), phosphor-(Ser9/21)-GSK-3α/β and Caspase-9 (Cell Signaling Technologies), phosphor-(Tyr216/279)-GSK-3α/β (Upstate Biotechnologies), cytochrome c (BD PharMingen). To detect Bax conformational change, cells were lysed in 1% Chaps buffer and the soluble fraction was immunoprecipitated with anti-Bax monoclonal antibody (6A7, BD, PharMingen), followed by immunoblotting with anti-Bax polyclonal antibody. Microarray analysis was performed as described (Kho, P. S., et al. J Biol Chem, 279: 21183-21192, 2004).
Subcellular fractionation: Cells were lysed in mitochondria lysis buffer (210 mM Mannitol, 70 mM Sucrose, 10 mM Hepes (pH, 7.4), 1 mM EDTA, protease inhibitor cocktail) with a Dounce homogenizer and subjected to centrifugation at 1000×g to pellet the nuclei. Post-nuclear supernatant was centrifuged at 10,000×g to pellet the mitochondria-enriched heavy membrane fraction, and the resulting supernatant was further centrifuged to obtain cytosolic fraction. Total proteins (30 μg) from cytosolic or mitochondrial fractions were subjected to immunoblot analysis.

HCT116 Bax −/− cells = assay: Mitochondrial membrane potential by JC-1 staining and FACS; details: co-treated with LY2119301 and genotoxic treatments
Protocol: (§2) Measurement of mitochondrial permeability transition: Cells were harvested by centrifugation at 300×g at 4° C. for 5 min. Mitochondrial permeability transition was determined by staining the cells with JC-1 (BD PharMingen) according to the manufacturer's instructions. Mitochondrial permeability transition was quantified by flow cytometric determination of cells with decreased red fluorescence, i.e. with mitochondria displaying a lower membrane potential (ΔΨm). Data are given in percentage of cells with low ΔΨm.

HCT116 cells (Bax+/+) = assay: as above; details: co-treated with LY2119301 and genotoxic treatments
Protocol: as §2

Bax = Bax conformational activation (IP with 6A7 antibody, Western blot); details: co-treatment with LY2119301 and ADR, etoposide or 5-FU, 24 h
Protocol: as §1

[1] = test system: HCT116 cells expressing p53 shRNA; assay: FACS apoptosis in HCT116 cells expressing p53 shRNA; details: LY2119301 and ADR (1 μM) or 5-FU (100 μM), 24 h, p53 knockdown
Protocol: (§3) FACS analysis of DNA content and caspase-3 activity: Cells were harvested and fixed in 70% ethanol. Fixed cells were stained with propidium iodide (50 μg/ml) after treatment with RNase (100 μg/ml). The stained cells were analyzed for DNA content by fluorescence-activated cell sorting (FACS) in a FACScalibur™ (Becton Dickinson Instrument, San Jose, Calif.). Cell cycle fractions were quantified using the CellQues™ software (Becton Dickinson). To measure caspase-3 activity, cells were fixed with Cytofix/Cytoperm™ solution (BD PharMingen) as instructed, and then stained with FITC-conjugated rabbit anti-active caspase-3 monoclonal antibody (BD PharMingen). Quantification of cells positive for the caspase-3 detection was performed by flow cytometry.
RNA interference: To generate knockdown vectors for p53, the following 19-nucleotide sequence was used: […] [SEQ ID NO: 1]. The oligonucleotide pair was cloned into the retroviral expression vector pSIREN-RetroQ™ (BD Bioscienses) according to the manufacturer's instructions. Briefly, 293 cells were transfected with the p53 shRNA construct for 48 h to produce viral particles. To establish p53 shRNA stable transfection clones, HCT116 cells were infected with retroviral stocks in the presence of 5 μg/ml polybrene. Infected cells were subject to puromycin selection at 2 μg/ml. […]

HT29 = assay: Apoptosis in p53 mutant colon cancer cell line; details: data not shown
Protocol: as §3

SW480 = assay: Apoptosis in p53 mutant colon cancer cell line; details: data not shown
Protocol: as §3

HCT116 p53 −/− cells = assay: FACS analysis of DNA content (sub-G1 apoptotic fraction)
Protocol: (§4) Cell culture and drug treatments: Human colon cancer cell line HCT116 and its derived isogenic p53^−/−, Puma^−/−, Bax^−/− and p53-inducible DLD cell lines were kindly provided by Dr. Bert Vogelstein (Johns Hopkins University, MD). RKO and RKO/E6 cells were from ATCC. Cells were cultured in DMEM containing 10% FBS. All culture reagents and media were from Invitrogen. 5-Fluorouracil, Adriamycin, etoposide and lithium chloride were purchased from Sigma. GSK-3β specific small molecule inhibitor LY2119301 was a gift from Eli Lilly (Indianapolis) and SB-216763, SB-415283 were obtained from BIOMOL.
as §3

HCT116 cells = assay: as above
Protocol: as §4, §3

[2] = test system: p53-responsive genes in HCT116; assay: Microarray analysis of p53-responsive genes; details: concurrent treatment with ADR and LY2119301
Protocol: as §1

## CN1CCN(c2ccc(NCCNc3ccc([N+](=O)[O-])c(N)n3)nc2-c2ccc(Cl)cc2Cl)C(=O)C1 [LY2119301]
p53 in HCT116 cells
  etoposide-induced p53 accumulation in cytosol: similarly decreased
  etoposide-induced p53 accumulation in mitochondria: similarly decreased
HCT116 Bax −/− cells
  reduction of mitochondrial membrane potential: not
HCT116 cells (Bax+/+)
  mitochondrial membrane potential: significant reduction
Bax
  levels of conformationally active Bax: dramatically increased
[1]
  apoptosis induction by co-treatment vs control vector cells: significantly reduced
HT29
  apoptosis induction: not induced
SW480
  apoptosis induction: not induced
HCT116 p53 −/− cells; 5-FU in presence of LY2119301, cells null for p53
  5-FU-induced apoptosis: no increased apoptosis
HCT116 p53 −/− cells; ADR and LY2119301 co-treatment, 24 h, p53 knockout
  synergistic induction of cell death: not seen
HCT116 cells; 5-FU in presence of LY2119301
  5-FU-induced apoptosis: greatly sensitized
HCT116 cells; LY2119301 with etoposide (10 μM) or camptothecin (100 nM), 24 h
  apoptosis in response to other DNA damaging agents: triggered p53-dependent apoptosis; also recorded: robust apoptosis
HCT116 cells; co-treatment ADR (1 μM) and LY2119301 (5 μM), 24 h
  cell death, sub-G1 population: ~59%
HCT116 cells; dose-effect experiments, 5-FU in presence of LY2119301
  increase in apoptosis induction by 5-FU: 10 fold
HCT116 cells; with ADR
  concentration able to induce apoptosis in ADR-treated cells (as low as): 250 nM
[2]
  induction of p53 responsive genes: uniformly attenuated
